Experimental data reported in patent US4500526A, “Cephalosporin derivatives” (Bristol-Myers Company, priority 1983, dated 1985).
≈ marks a conversion by molar mass, not a printed value. Read-outs that look alike come from different tables or passages of the source.

Legend:
[1] = test system: Penicillinsensitive S. aureus (5 strains); assay: MIC, two-fold serial agar dilution, group (G+)-Ia; type: cell-based; conditions: Staphylococcus aureus, read-out: Geometric Mean of MIC
Procedure: (§1) In the primary evaluation of the compounds of this invention, the Minimum Inhibitory Concentrations (MIC's) of the compounds were determined by the two-fold serial agar dilution method in Mueller-Hinton agar against 32 strains of test organisms in six groups. The sample weights of the test compounds were adjusted according to the purity of each compound, so as to give a more accurate measure of the MIC's.
(G+)Ia: Penicillinsensitive S. aureus (5 strains)

[2] = test system: Penicillinresistant S. aureus (5 strains); assay: MIC, two-fold serial agar dilution, group (G+)-Ib; type: cell-based; conditions: Staphylococcus aureus, read-out: Geometric Mean of MIC
Procedure: as §1
(G+)Ib: Penicillinresistant S. aureus (5 strains)

[3] = test system: Cephalothinsensitive E. coli (2 strains), Kl. pneumoniae (1 strain) and Pr. mirabilis (2 strains); assay: MIC, two-fold serial agar dilution, group (G-)-Ia; type: cell-based; conditions: 5 strains, Mueller-Hinton agar, read-out: Geometric Mean of MIC
Procedure: as §1
(G-)Ia: Cephalothinsensitive E. coli (2 strains), Kl. pneumoniae (1
strain) and Pr. mirabilis (2 strains)

[4] = test system: Cephalothinresistant E. coli (3 strains) and Kl. pneumoniae (3 strains); assay: MIC, two-fold serial agar dilution, group (G-)-Ib; type: cell-based; conditions: Escherichia coli, read-out: Geometric Mean of MIC
Procedure: as §1
(G-)Ib: Cephalothinresistant E. coli (3 strains) and Kl. pneumoniae (3

[5] = test system: M. morganii (1 strain), Ent. cloacae (2 strains) and Ser. marcescens (2 strains); assay: MIC, two-fold serial agar dilution, group (G-)-II; type: cell-based; conditions: read-out: Geometric Mean of MIC
Procedure: as §1
(G-)II: M. morganii (1 strain), Ent. cloacae (2 strains) and Ser.

[6] = test system: Ps. aeruginosa (6 strains); assay: MIC, two-fold serial agar dilution, group (G-)-III; type: cell-based; conditions: Pseudomonas aeruginosa, read-out: Geometric Mean of MIC
Procedure: as §1
(G-)III: Ps. aeruginosa (6 strains)

[7] = Mouse blood levels after single intramuscular injection; type: in vivo, mice; conditions: in vivo, im, 20 mg/kg
Procedure: The absorption of some of the preferred compounds were determined in mice following a single intramuscular injection of the test compound (dissolved in 0.1M phosphate buffer; pH 7) at a dosage of 20 mg/kg. Blood samples were collected from the orbital sinuses into heparinized capillary tubes and assayed in Nutrient Agar (pH 6.6) using E. coli Ess-22-31 as the test organism. The blood levels at various time intervals, the half-life values (t1/2) and the areas under the curve (AUC) are shown in Table 2.

E. coli Juhl = assay: Median protective dose in infected mice; type: in vivo; conditions: Escherichia coli, im, immediately after intraperitoneal challenge, read-out: PD50
Procedure: (§2) The median protective dose (PD50) of some of the preferred compounds against various microorganisms was determined in mice by intramuscular administration of the test compound immediately after an intraperitoneal bacterial challenge.

P. aeruginosa A9843 = assay: Median protective dose in infected mice; type: in vivo; conditions: Pseudomonas aeruginosa, im, immediately after intraperitoneal challenge, read-out: PD50
Procedure: as §2

S. aureus Smith = assay: Median protective dose in infected mice; type: in vivo; conditions: Staphylococcus aureus, im, immediately after intraperitoneal challenge, read-out: PD50
Procedure: as §2

[8] = (G+)-Ia, 5 strains, Mueller-Hinton agar
[9] = (G+)-Ib, 5 strains, Mueller-Hinton agar
[10] = (G-)-III, 6 strains, Mueller-Hinton agar
[11] = (G-)-II, 5 strains, Mueller-Hinton agar

CO/N=C(\C(=O)NC1C(=O)N2C(C(=O)[O-])=C(C[n+]3ccc4sc(N(C)C)nc4c3)CS[C@H]12)c1csc(N)n1 (some centres unmarked) [Iu, 7-[(Z)-2-(2-Aminothiazol-4-yl)-2-methoxyiminoacetamido]-3-(2-dimethylamino-5-thiazolo[4,5-c]pyridinio)methyl-3-cephem-4-carboxylate]
MIC [1, 8]: 0.46 µg/mL (≈ 0.8 µM) | MIC [2, 9]: 0.8 µg/mL (≈ 1.39 µM) | MIC [3]: 0.012 µg/mL (≈ 0.0209 µM) | MIC [4]: 0.11 µg/mL (≈ 0.191 µM) | MIC [5]: 0.23 µg/mL (≈ 0.4 µM) | MIC [6, 10]: 6.3 µg/mL (≈ 11 µM) | AUC [7]: 9800 ng·h/mL | concentration at 10 min [7]: 18000 ng/mL | concentration at 20 min [7]: 13000 ng/mL | concentration at 0.5 h [7]: 9600 ng/mL | concentration at 40 min [7]: 5500 ng/mL | concentration at 50 min [7]: 3400 ng/mL | concentration at 1 h [7]: 2600 ng/mL | concentration at 1.5 h [7]: 1000 ng/mL | concentration at 2 h [7]: 340 ng/mL | half-life [7]: 19 min | ED50 (E. coli Juhl): 0.013 mg/kg | ED50 (P. aeruginosa A9843): 4.6 mg/kg | ED50 (S. aureus Smith): 0.48 mg/kg

CCO/N=C(\C(=O)NC1C(=O)N2C(C(=O)[O-])=C(C[n+]3ccc4sc(N)nc4c3)CSC12)c1csc(N)n1 (centres unmarked) [Ij, 7-[(Z)-2-(2-Aminothiazol-4-yl)-2-ethoxyiminoacetamido]-3-[{5-(2-aminothiazolo[4,5-c]pyridinio)}methyl]-3-cephem-4-carboxylate]
MIC [1, 8]: 0.36 µg/mL (≈ 0.642 µM) | MIC [2, 9]: 0.48 µg/mL (≈ 0.856 µM) | MIC [3]: 0.02 µg/mL (≈ 0.0357 µM) | MIC [4]: 0.17 µg/mL (≈ 0.303 µM) | MIC [5, 11]: 0.24 µg/mL (≈ 0.428 µM) | MIC [6, 10]: 3 µg/mL (≈ 5.35 µM)

CO/N=C(\C(=O)NC1C(=O)N2C(C(=O)[O-])=C(C[n+]3ccc4sc(SC)nc4c3)CSC12)c1csc(N)n1 (centres unmarked) [Ii, 7-[(Z)-2-(2-Aminothiazol-4-yl)-2-methoxyiminoacetamido]-3-[{5-(2-methylthiothiazolo[4,5-c]pyridinio)}methyl]-3-cephem-4-carboxylate]
MIC [1, 8]: 0.23 µg/mL (≈ 0.398 µM) | MIC [2]: 0.2 µg/mL (≈ 0.346 µM) | MIC [3]: 0.025 µg/mL (≈ 0.0433 µM) | MIC [4]: 0.13 µg/mL (≈ 0.225 µM) | MIC [5, 11]: 0.24 µg/mL (≈ 0.415 µM) | MIC [6]: 5.5 µg/mL (≈ 9.52 µM) | AUC [7]: 6800 ng·h/mL | concentration at 10 min [7]: 14000 ng/mL | concentration at 20 min [7]: 10000 ng/mL | concentration at 0.5 h [7]: 5900 ng/mL | concentration at 40 min [7]: 4800 ng/mL | concentration at 50 min [7]: 2400 ng/mL | concentration at 1 h [7]: 1500 ng/mL | concentration at 1.5 h [7]: 250 ng/mL | concentration at 2 h [7]: < 100 ng/mL | half-life [7]: 13 min

CCO/N=C(\C(=O)NC1C(=O)N2C(C(=O)[O-])=C(C[n+]3ccc4scnc4c3)CSC12)c1csc(N)n1 (centres unmarked) [Ib, 7-[(Z)-2-(2-Aminothiazol-4-yl)-2-ethoxyiminoacetamido]-3-{(5-thiazolo[4,5-c]pyridino)methyl}-3-cephem-4-carboxylate]
MIC [1, 8]: 0.42 µg/mL (≈ 0.77 µM) | MIC [2, 9]: 0.96 µg/mL (≈ 1.76 µM) | MIC [3]: 0.035 µg/mL (≈ 0.0641 µM) | MIC [4]: 0.22 µg/mL (≈ 0.403 µM) | MIC [5]: 0.32 µg/mL (≈ 0.586 µM) | MIC [6, 10]: 2.6 µg/mL (≈ 4.77 µM) | AUC [7]: 8400 ng·h/mL | concentration at 10 min [7]: 15000 ng/mL | concentration at 20 min [7]: 22000 ng/mL | concentration at 0.5 h [7]: 8400 ng/mL | concentration at 40 min [7]: 6100 ng/mL | concentration at 50 min [7]: 3800 ng/mL | concentration at 1 h [7]: 920 ng/mL | concentration at 1.5 h [7]: 680 ng/mL | concentration at 2 h [7]: 430 ng/mL | half-life [7]: 19 min

CO/N=C(\C(=O)NC1C(=O)N2C(C(=O)[O-])=C(C[n+]3ccc4sc(C)nc4c3)CSC12)c1csc(N)n1 (centres unmarked) [Ih, 7-[(Z)-2-(2-Aminothiazol-4-yl)-2-methoxyiminoacetamido]-3-[{5-(2-methylthiazolo[4,5-c]pyridinio)}methyl]-3-cephem-4-carboxylate]
MIC [1, 8]: 0.34 µg/mL (≈ 0.623 µM) | MIC [2, 9]: 0.78 µg/mL (≈ 1.43 µM) | MIC [3]: 0.007 µg/mL (≈ 0.0128 µM) | MIC [4]: 0.058 µg/mL (≈ 0.106 µM) | MIC [5]: 0.11 µg/mL (≈ 0.202 µM) | MIC [6, 10]: 2.3 µg/mL (≈ 4.22 µM) | AUC [7]: 8600 ng·h/mL | concentration at 10 min [7]: 16000 ng/mL | concentration at 20 min [7]: 10000 ng/mL | concentration at 0.5 h [7]: 6900 ng/mL | concentration at 40 min [7]: 5900 ng/mL | concentration at 50 min [7]: 4100 ng/mL | concentration at 1 h [7]: 3000 ng/mL | concentration at 1.5 h [7]: 790 ng/mL | concentration at 2 h [7]: 130 ng/mL | half-life [7]: 16 min

Nc1nc(/C(=N/OCC(=O)O)C(=O)NC2C(=O)N3C(C(=O)[O-])=C(C[n+]4ccc5sc(N)nc5c4)CS[C@H]23)cs1 (some centres unmarked) [Ig, 7-[(Z)-2-(2-Aminothiazol-4-yl)-2-(carboxymethoxyimino)acetamido]-3-(2-amino-5-thiazolo[4,5-c]pyridinio)methyl-3-cephem-4-carboxylate]
MIC [1, 8]: 2.1 µg/mL (≈ 3.56 µM) | MIC [2]: 3.6 µg/mL (≈ 6.1 µM) | MIC [3]: 0.0072 µg/mL (≈ 0.0122 µM) | MIC [4]: 0.3 µg/mL (≈ 0.508 µM) | MIC [5]: 0.1 µg/mL (≈ 0.169 µM) | MIC [6]: 1.8 µg/mL (≈ 3.05 µM) | AUC [7]: 15000 ng·h/mL | concentration at 10 min [7]: 21000 ng/mL | concentration at 20 min [7]: 17000 ng/mL | concentration at 0.5 h [7]: 15000 ng/mL | concentration at 40 min [7]: 10000 ng/mL | concentration at 50 min [7]: 7600 ng/mL | concentration at 1 h [7]: 6300 ng/mL | concentration at 1.5 h [7]: 1900 ng/mL | concentration at 2 h [7]: 840 ng/mL | half-life [7]: 22 min

CC(C)(O/N=C(\C(=O)NC1C(=O)N2C(C(=O)[O-])=C(C[n+]3ccc4sc(N)nc4c3)CSC12)c1csc(N)n1)C(=O)O (centres unmarked) [Io, 7-[(Z)-2-(2-Aminothiazol-4-yl)-2-(2-carboxyprop-2-oxyimino)-acetamido]-3-[{5-(2-aminothiazolo[4,5-c]pyridinio)}methyl]-3-cephem-4-carboxylate]
MIC [1]: 1.6 µg/mL (≈ 2.59 µM) | MIC [2, 9]: 3.8 µg/mL (≈ 6.14 µM) | MIC [3]: 0.023 µg/mL (≈ 0.0372 µM) | MIC [4]: 0.47 µg/mL (≈ 0.76 µM) | MIC [5, 11]: 0.66 µg/mL (≈ 1.07 µM) | MIC [6, 10]: 1.5 µg/mL (≈ 2.42 µM)

CO/N=C(\C(=O)NC1C(=O)N2C(C(=O)[O-])=C(C[n+]3ccc4sc(C(N)=O)nc4c3)CS[C@H]12)c1csc(N)n1 (some centres unmarked) [Ix, 7-[(Z)-2-(2-Aminothiazol-4-yl)-2-methoxyiminoacetamido]-3-(2-carbamoyl-5-thiazolo[4,5-c]pyridinio)methyl-3-cephem-4-carboxylate]
MIC [1, 8]: 0.53 µg/mL (≈ 0.922 µM) | MIC [2, 9]: 0.8 µg/mL (≈ 1.39 µM) | MIC [3]: 0.022 µg/mL (≈ 0.0383 µM) | MIC [4]: 0.2 µg/mL (≈ 0.348 µM) | MIC [5, 11]: 0.39 µg/mL (≈ 0.679 µM) | MIC [6, 10]: 2.8 µg/mL (≈ 4.87 µM) | AUC [7]: 19000 ng·h/mL | concentration at 10 min [7]: 20000 ng/mL | concentration at 20 min [7]: 18000 ng/mL | concentration at 0.5 h [7]: 20000 ng/mL | concentration at 40 min [7]: 13000 ng/mL | concentration at 50 min [7]: 11000 ng/mL | concentration at 1 h [7]: 7000 ng/mL | concentration at 1.5 h [7]: 4200 ng/mL | concentration at 2 h [7]: 2100 ng/mL | half-life [7]: 31 min | ED50 (E. coli Juhl): 0.013 mg/kg | ED50 (S. aureus Smith): 1.5 mg/kg

CNC(=O)Nc1nc2c[n+](CC3=C(C(=O)[O-])N4C(=O)C(NC(=O)/C(=N\OC)c5csc(N)n5)[C@H]4SC3)ccc2s1 (some centres unmarked) [Ir, 7-[(Z)-2-(2-Aminothiazol-4-yl)-2-methoxyiminoacetamido]-3-[2-(3-methylureido)-5-thiazolo[4,5-c]pyridinio]methyl-3-cephem-4-carboxylate]
MIC [1]: 0.4 µg/mL (≈ 0.663 µM) | MIC [2, 9]: 0.8 µg/mL (≈ 1.33 µM) | MIC [3]: 0.025 µg/mL (≈ 0.0414 µM) | MIC [4]: 0.46 µg/mL (≈ 0.762 µM) | MIC [5, 11]: 0.52 µg/mL (≈ 0.861 µM) | MIC [6, 10]: 5.2 µg/mL (≈ 8.61 µM)
